Tests used:
[1] = Sedimentation in liquid solutions; type: physicochemical; conditions: micronized, particulate form
[2] = exposure to oxygen: oxygenation of diclofenac, degradation of ofloxacin into ofloxacin-N-oxide; cited from earlier work

SMILES | time to sedimentation in liquid solutions [1] | compatibility of diclofenac and ofloxacin [2]
CC(=O)OCC(=O)[C@@]1(O)CC[C@H]2[C@@H]3CCC4=CC(=O)C=C[C@]4(C)[C@H]3[C@@H](O)C[C@@]21C [Prednisolone acetate] | less than one minute | 
O=C(O)Cc1ccccc1Nc1c(Cl)cccc1Cl [Diclofenac] |  | generally incompatible

Reference: patent US11000530B2, “Methods and compositions for the treatment of ophthalmic conditions” (Murray & Poole Enterprises, Limited, priority 2017, dated 2021)
